Data: PubChem BioAssay (NCI)
Values joined by “and” are separate entries in the source; they are usually repeats but may differ in a detail not shown here. Identical values can stand only once.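 These data come from cells grown in 96-well plates and exposed to compound for 48 hours at five concentrations. At the GI50, growth is halved. Definition used: TGI = concentration required for complete inhibition of growth.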

Legend:
Assay in all cases: NCI-60 cell line screen, 48 h
MDA-MB-231 breast = system: MDA-MB-231 breast
HOP-92 NSCLC = system: HOP-92 NSCLC
OVCAR-5 ovarian = system: OVCAR-5 ovarian
HCT-116 colon = system: HCT-116 colon
PC-3 prostate = system: PC-3 prostate
SF-539 CNS = system: SF-539 CNS
SR leukemia = system: SR leukemia
MCF7 breast = system: MCF7 breast
UO-31 renal = system: UO-31 renal
RXF 393 renal = system: RXF 393 renal
RPMI-8226 leukemia = system: RPMI-8226 leukemia
HT29 colon = system: HT29 colon
A549 NSCLC = system: A549 NSCLC
MOLT-4 leukemia = system: MOLT-4 leukemia
SF-268 CNS = system: SF-268 CNS
OVCAR-8 ovarian = system: OVCAR-8 ovarian
SK-MEL-28 melanoma = system: SK-MEL-28 melanoma
SW-620 colon = system: SW-620 colon
TK-10 renal = system: TK-10 renal
SF-295 CNS = system: SF-295 CNS
U251 CNS = system: U251 CNS
UACC-62 melanoma = system: UACC-62 melanoma
EKVX NSCLC = system: EKVX NSCLC
LOX IMVI melanoma = system: LOX IMVI melanoma
OVCAR-3 ovarian = system: OVCAR-3 ovarian
T-47D breast = system: T-47D breast
HS 578T breast = system: HS 578T breast
UACC-257 melanoma = system: UACC-257 melanoma
NCI-H522 lung = system: NCI-H522 lung
KM12 colon = system: KM12 colon
NCI/ADR-RES ovarian = system: NCI/ADR-RES ovarian
SN12C renal = system: SN12C renal
HOP-62 NSCLC = system: HOP-62 NSCLC
M14 melanoma = system: M14 melanoma
SNB-75 CNS = system: SNB-75 CNS
IGROV1 ovarian = system: IGROV1 ovarian
MALME-3M melanoma = system: MALME-3M melanoma
OVCAR-4 ovarian = system: OVCAR-4 ovarian
HCC-2998 colon = system: HCC-2998 colon
ACHN renal = system: ACHN renal
A498 renal = system: A498 renal
786-0 renal = system: 786-0 renal
SNB-19 CNS = system: SNB-19 CNS
BT-549 breast = system: BT-549 breast
CCRF-CEM leukemia = system: CCRF-CEM leukemia
SK-MEL-2 melanoma = system: SK-MEL-2 melanoma
NCI-H460 lung = system: NCI-H460 lung
COLO 205 colon = system: COLO 205 colon
DU-145 prostate = system: DU-145 prostate
SK-MEL-5 melanoma = system: SK-MEL-5 melanoma
NCI-H226 lung = system: NCI-H226 lung
CAKI-1 renal = system: CAKI-1 renal
K-562 leukemia = system: K-562 leukemia
MDA-MB-435 = system: MDA-MB-435
NCI-H23 lung = system: NCI-H23 lung
HCT-15 colon = system: HCT-15 colon
SK-OV-3 ovarian = system: SK-OV-3 ovarian
HL-60(TB) leukemia = system: HL-60(TB) leukemia

## c1ccc2c(Nc3ccc(Oc4ccc(Nc5c6ccccc6nc6ccccc56)cc4)cc3)c3ccccc3nc2c1
MDA-MB-231 breast
  GI50: 0.197 µM and 0.139 µM
  TGI: 0.566 µM and 0.268 µM
HOP-92 NSCLC
  GI50: 0.285 µM
  TGI: 1.5 µM and 4.69 µM
OVCAR-5 ovarian
  TGI: 1.06 µM
HCT-116 colon
  GI50: 0.155 µM and 0.0325 µM
  TGI: 0.289 µM and 0.117 µM
PC-3 prostate
  TGI: 0.366 µM
SF-539 CNS
  GI50: 2.1 µM and 1.65 µM
  TGI: 3.91 µM and 3.32 µM
SR leukemia
  GI50: 0.126 µM
  TGI: 0.323 µM
MCF7 breast
  GI50: 0.176 µM
UO-31 renal
  GI50: 1.37 µM and 1.19 µM
  TGI: 2.66 µM and 2.6 µM
RXF 393 renal
  GI50: 1.56 µM
  TGI: 3.87 µM and > 27.2 µM
RPMI-8226 leukemia
  GI50: 0.187 µM
  TGI: 0.434 µM
HT29 colon
  GI50: 0.237 µM and 0.212 µM
  TGI: 0.569 µM and 0.496 µM
A549 NSCLC
  GI50: 0.265 µM and 0.227 µM
  TGI: 0.792 µM and 0.54 µM
MOLT-4 leukemia
  GI50: 0.186 µM
  TGI: 0.843 µM
SF-268 CNS
  GI50: 0.758 µM
  TGI: 2.81 µM and 4.88 µM
OVCAR-8 ovarian
  TGI: 0.526 µM
SK-MEL-28 melanoma
  GI50: 1.44 µM
SW-620 colon
  TGI: 0.552 µM
TK-10 renal
  TGI: 0.97 µM
SF-295 CNS
  TGI: 0.829 µM
U251 CNS
  GI50: 0.0212 µM and 0.145 µM
  TGI: 0.0762 µM and 0.276 µM
UACC-62 melanoma
  GI50: 1.54 µM and 0.182 µM
  TGI: 3.02 µM and 0.36 µM
EKVX NSCLC
  GI50: 2.5 µM
  TGI: 5.17 µM and 4.63 µM
LOX IMVI melanoma
  GI50: 0.0148 µM
OVCAR-3 ovarian
  TGI: 0.366 µM
T-47D breast
  GI50: 0.221 µM
  TGI: 0.51 µM and 2.74 µM
HS 578T breast
  TGI: 5.04 µM
UACC-257 melanoma
  GI50: 1.73 µM and 0.245 µM
  TGI: 3.2 µM and 0.524 µM
NCI-H522 lung
  GI50: 0.205 µM
  TGI: 1.97 µM and 0.44 µM
KM12 colon
  GI50: 0.21 µM and 0.187 µM
  TGI: 0.441 µM and 0.376 µM
NCI/ADR-RES ovarian
  TGI: 0.156 µM
SN12C renal
  GI50: 0.213 µM and 0.375 µM
  TGI: 0.651 µM and 1.69 µM
HOP-62 NSCLC
  GI50: 0.301 µM and 1.74 µM
  TGI: 1.09 µM and 3.12 µM
M14 melanoma
  TGI: 1.05 µM
SNB-75 CNS
  GI50: 1.59 µM
  TGI: 3.98 µM and 1.45 µM
IGROV1 ovarian
  GI50: 0.292 µM and 1.16 µM
  TGI: 1.21 µM and 2.64 µM
MALME-3M melanoma
  GI50: 2.08 µM
  TGI: 3.02 µM and 3.82 µM
OVCAR-4 ovarian
  GI50: 0.278 µM
  TGI: 0.637 µM and 0.145 µM
HCC-2998 colon
  TGI: 0.0155 µM
ACHN renal
  GI50: 0.0309 µM and 0.133 µM
  TGI: 0.101 µM and 0.26 µM
A498 renal
  TGI: 3.85 µM
786-0 renal
  TGI: 0.0305 µM
SNB-19 CNS
  GI50: 0.333 µM
  TGI: 1.11 µM
BT-549 breast
  GI50: 2.07 µM and 1.87 µM
  TGI: 4.54 µM and 4.4 µM
CCRF-CEM leukemia
  GI50: 0.217 µM
  TGI: 0.719 µM
SK-MEL-2 melanoma
  GI50: 3.25 µM
  TGI: 3.78 µM
NCI-H460 lung
  GI50: 0.346 µM
  TGI: 1.38 µM and 5.93 µM
COLO 205 colon
  GI50: 1.52 µM
  TGI: 3.65 µM and 2.45 µM
DU-145 prostate
  GI50: 0.403 µM
  TGI: 1.25 µM and 0.929 µM
SK-MEL-5 melanoma
  TGI: 3.4 µM
NCI-H226 lung
  TGI: 3.81 µM
CAKI-1 renal
  GI50: 1.82 µM
  TGI: 3.22 µM and 3.01 µM
K-562 leukemia
  GI50: 0.32 µM
  TGI: 1.08 µM
MDA-MB-435
  TGI: 0.4 µM
NCI-H23 lung
  TGI: 0.596 µM
HCT-15 colon
  GI50: 0.019 µM and 0.017 µM
  TGI: 0.0358 µM and 0.0379 µM
SK-OV-3 ovarian
  TGI: 4.21 µM

## COc1cc2c(cc1OCCCCCn1c(-c3ccco3)nc3ccccc31)N=C[C@@H]1CCCN1C2=O
MDA-MB-231 breast
  GI50: < 0.0141 µM
  TGI: 0.224 µM
HOP-92 NSCLC
  GI50: < 0.0122 µM
HCT-116 colon
  GI50: < 0.01 µM
  TGI: 16.1 µM
PC-3 prostate
  GI50: < 0.01 µM
  TGI: > 100 µM
SF-539 CNS
  GI50: < 0.01 µM
  TGI: < 0.0472 µM
SR leukemia
  GI50: < 0.01 µM
  TGI: < 0.01 µM
MCF7 breast
  GI50: < 0.01 µM
  TGI: 19 µM
RPMI-8226 leukemia
  GI50: < 0.01 µM
  TGI: < 0.0309 µM
HT29 colon
  GI50: < 0.01 µM
  TGI: > 100 µM
A549 NSCLC
  GI50: < 0.01 µM
  TGI: > 100 µM
MOLT-4 leukemia
  GI50: < 0.01 µM
SF-268 CNS
  GI50: < 0.01 µM
OVCAR-8 ovarian
  GI50: < 0.01 µM
  TGI: > 36.8 µM
SK-MEL-28 melanoma
  GI50: < 0.01 µM
  TGI: < 0.0149 µM
SW-620 colon
  GI50: < 0.01 µM
  TGI: 10.1 µM
TK-10 renal
  GI50: 0.0267 µM
  TGI: 35.6 µM
SF-295 CNS
  GI50: < 0.01 µM
  TGI: 0.0227 µM
U251 CNS
  GI50: < 0.01 µM
  TGI: 11.2 µM
UACC-62 melanoma
  GI50: < 0.01 µM
  TGI: < 0.0106 µM
EKVX NSCLC
  GI50: < 0.0115 µM
  TGI: 1.59 µM
OVCAR-3 ovarian
  GI50: < 0.01 µM
  TGI: < 0.01 µM
T-47D breast
  GI50: < 0.01 µM
HS 578T breast
  GI50: < 0.01 µM
  TGI: < 0.0349 µM
UACC-257 melanoma
  GI50: < 0.01 µM
  TGI: < 0.01 µM
NCI-H522 lung
  GI50: < 0.01 µM
KM12 colon
  GI50: < 0.01 µM
NCI/ADR-RES ovarian
  GI50: 0.295 µM
SN12C renal
  GI50: < 0.01 µM
  TGI: 11.3 µM
HL-60(TB) leukemia
  GI50: 0.023 µM
  TGI: 0.114 µM
HOP-62 NSCLC
  GI50: < 0.01 µM
  TGI: 1.1 µM
M14 melanoma
  GI50: < 0.01 µM
  TGI: 0.0236 µM
SNB-75 CNS
  GI50: < 0.01 µM
  TGI: 0.0334 µM
IGROV1 ovarian
  GI50: < 0.01 µM
  TGI: 13.2 µM
MALME-3M melanoma
  GI50: < 0.01 µM
  TGI: < 0.01 µM
OVCAR-4 ovarian
  GI50: < 0.014 µM
  TGI: > 41.4 µM
HCC-2998 colon
  GI50: < 0.01 µM
  TGI: 0.0193 µM
A498 renal
  GI50: < 0.01 µM
  TGI: < 0.0156 µM
786-0 renal
  GI50: < 0.01 µM
  TGI: 1.3 µM
BT-549 breast
  GI50: < 0.01 µM
  TGI: < 0.0209 µM
CCRF-CEM leukemia
  GI50: < 0.01 µM
  TGI: 0.09 µM
SK-MEL-2 melanoma
  GI50: < 0.0147 µM
  TGI: 0.07 µM
NCI-H460 lung
  GI50: < 0.01 µM
  TGI: 14.3 µM
COLO 205 colon
  GI50: < 0.01 µM
  TGI: < 0.01 µM
DU-145 prostate
  GI50: < 0.0152 µM
SK-MEL-5 melanoma
  GI50: < 0.01 µM
  TGI: < 0.01 µM
NCI-H226 lung
  GI50: < 0.01 µM
  TGI: < 0.0136 µM
CAKI-1 renal
  GI50: < 0.01 µM
  TGI: 0.0318 µM
K-562 leukemia
  GI50: < 0.01 µM
  TGI: > 100 µM
MDA-MB-435
  GI50: < 0.01 µM
  TGI: < 0.01 µM
NCI-H23 lung
  GI50: < 0.01 µM
  TGI: < 0.01 µM
HCT-15 colon
  GI50: 0.0452 µM
  TGI: 26.4 µM
SK-OV-3 ovarian
  GI50: < 0.01 µM
